System: 997726-040-R-J2-PDC tumor spheroids, viability
Assay: Anticancer human tumor 997726-040-R-J2-PDC patient-derived squamous cell lung carcinoma cell line growth inhibition [PI3K]
Details: spheroids with HUVEC and MSC; for IC50: curve of first compound; for viability, T/C: stronger effect = lower value
Summary of the method: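 Tumor cells grown as multi-cell spheroids with HUVEC endothelial cells and MSC fibroblast-like stroma were treated with targeted agents combined with inavolisib, alpelisib, duvelisib or copanlisib. Doses fell in half-log steps from near clinical Cmax, else from 10 microM. Viability was measured.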

[1] = second compound 0.0316 µM, first compound 0.0316 µM
[2] = second compound 0.0316 µM, first compound 0.1 µM
[3] = second compound 0.0316 µM, first compound 0.316 µM
[4] = second compound 0.0316 µM, first compound 1 µM
[5] = second compound 0.0316 µM, first compound 3.16 µM
[6] = second compound 0.0316 µM, first compound 10 µM
[7] = second compound 0.1 µM, first compound 0.0316 µM
[8] = second compound 0.1 µM, first compound 0.1 µM
[9] = second compound 0.1 µM, first compound 0.316 µM
[10] = second compound 0.1 µM, first compound 1 µM
[11] = second compound 0.1 µM, first compound 3.16 µM
[12] = second compound 0.1 µM, first compound 10 µM
[13] = second compound 0.316 µM, first compound 0.0316 µM
[14] = second compound 0.316 µM, first compound 0.1 µM
[15] = second compound 0.316 µM, first compound 0.316 µM
[16] = second compound 0.316 µM, first compound 1 µM
[17] = second compound 0.316 µM, first compound 3.16 µM
[18] = second compound 0.316 µM, first compound 10 µM
[19] = second compound 1 µM, first compound 0.0316 µM
[20] = second compound 1 µM, first compound 0.1 µM
[21] = second compound 1 µM, first compound 0.316 µM
[22] = second compound 1 µM, first compound 1 µM
[23] = second compound 1 µM, first compound 3.16 µM
[24] = second compound 1 µM, first compound 10 µM
[25] = second compound 3.16 µM, first compound 0.0316 µM
[26] = second compound 3.16 µM, first compound 0.1 µM
[27] = second compound 3.16 µM, first compound 0.316 µM
[28] = second compound 3.16 µM, first compound 1 µM
[29] = second compound 3.16 µM, first compound 3.16 µM
[30] = second compound 3.16 µM, first compound 10 µM
[31] = second compound 10 µM, first compound 0.0316 µM
[32] = second compound 10 µM, first compound 0.1 µM
[33] = second compound 10 µM, first compound 0.316 µM
[34] = second compound 10 µM, first compound 1 µM
[35] = second compound 10 µM, first compound 3.16 µM
[36] = second compound 10 µM, first compound 10 µM
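Note: spheroids exposed to compounds for seven days before readout.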

What does the source list for C#Cc1c(F)ccc2cc(O)cc(-c3ncc4c(N5CC6CCC(C5)N6)nc(OCC56CCCN5CC(F)C6)nc4c3F)c12 (stereo unspecified) + Cc1nc(NC(=O)N2CCCC2C(N)=O)sc1-c1ccnc(C(C)(C)C(F)(F)F)c1?
IC50 (second compound 0.0316 µM): > 10000 nM; IC50 (second compound 0.1 µM): > 10000 nM; IC50 (second compound 0.316 µM): 220 nM; IC50 (second compound 1 µM): < 31.6 nM; IC50 (second compound 3.16 µM): < 31.6 nM; IC50 (second compound 10 µM): < 31.6 nM; viability, T/C [1]: 89.9%; viability, T/C [2]: 88.9%; viability, T/C [3]: 84%; viability, T/C [4]: 81.3%; viability, T/C [5]: 77.9%; viability, T/C [6]: 75.5%; viability, T/C [7]: 77.4%; viability, T/C [8]: 71.4%; viability, T/C [9]: 74.6%; viability, T/C [10]: 79.8%; viability, T/C [11]: 60.9%; viability, T/C [12]: 55%; viability, T/C [13]: 59.6%; viability, T/C [14]: 51.2%; viability, T/C [15]: 51%; viability, T/C [16]: 44.3%; viability, T/C [17]: 42.9%; viability, T/C [18]: 41.9%; viability, T/C [19]: 41.4%; viability, T/C [20]: 39.5%; viability, T/C [21]: 41.7%; viability, T/C [22]: 40.3%; viability, T/C [23]: 40.3%; viability, T/C [24]: 30%; viability, T/C [25]: 30.8%; viability, T/C [26]: 27.2%; viability, T/C [27]: 31.2%; viability, T/C [28]: 28.5%; viability, T/C [29]: 30.5%; viability, T/C [30]: 21.9%; viability, T/C [31]: 15.8%; viability, T/C [32]: 17.6%; viability, T/C [33]: 13.4%; viability, T/C [34]: 17.6%; viability, T/C [35]: 14.1%; viability, T/C [36]: 15.8%

For CC(Cn1ccc(-c2ccc(C#N)c(Cl)c2)n1)NC(=O)c1cc(C(C)O)[nH]n1 (stereo unspecified) + Cc1nc(NC(=O)N2CCCC2C(N)=O)sc1-c1ccnc(C(C)(C)C(F)(F)F)c1, which IC50 (second compound 0.0316 µM) is on record?
The IC50 was greater than 10000 nM.

What about the IC50 (second compound 0.1 µM) of the same compound?
The IC50 was greater than 10000 nM.

What about the IC50 (second compound 0.316 µM) of the same compound?
The IC50 was greater than 10000 nM.

And the IC50 (second compound 1 µM)?
Its IC50 is less than 31.6 nM.

What about the IC50 (second compound 3.16 µM) of the same compound?
The IC50 was less than 31.6 nM.

And the IC50 (second compound 10 µM)?
The IC50 was less than 31.6 nM.

What about the viability, T/C [1] of the same compound?
Its viability, T/C is 88.7%.

What about the viability, T/C [2] of the same compound?
The viability, T/C was 92.7%.

And the viability, T/C [3]?
Its viability, T/C is 90.5%.

What about the viability, T/C [4] of the same compound?
Its viability, T/C is 95.7%.

And the viability, T/C [5]?
Its viability, T/C is 86.2%.

What about the viability, T/C [6] of the same compound?
Its viability, T/C is 86%.

And the viability, T/C [7]?
Its viability, T/C is 76%.

And the viability, T/C [8]?
The viability, T/C was 74.3%.

And the viability, T/C [9]?
Its viability, T/C is 80.2%.

What about the viability, T/C [10] of the same compound?
The viability, T/C was 74.3%.

And the viability, T/C [11]?
The viability, T/C was 78.9%.

What about the viability, T/C [12] of the same compound?
The viability, T/C was 72.1%.

What about the viability, T/C [13] of the same compound?
Its viability, T/C is 62.5%.

What about the viability, T/C [14] of the same compound?
Its viability, T/C is 53.5%.

What about the viability, T/C [15] of the same compound?
The viability, T/C was 59.5%.

What about the viability, T/C [16] of the same compound?
The viability, T/C was 57.5%.

What about the viability, T/C [17] of the same compound?
Its viability, T/C is 58.9%.

What about the viability, T/C [18] of the same compound?
Its viability, T/C is 54%.

What about the viability, T/C [19] of the same compound?
Its viability, T/C is 45%.

What about the viability, T/C [20] of the same compound?
Its viability, T/C is 44.7%.

What about the viability, T/C [21] of the same compound?
The viability, T/C was 47.3%.

And the viability, T/C [22]?
The viability, T/C was 39.8%.

And the viability, T/C [23]?
The viability, T/C was 43.1%.

And the viability, T/C [24]?
The viability, T/C was 41.8%.

What about the viability, T/C [25] of the same compound?
The viability, T/C was 29.4%.

And the viability, T/C [26]?
Its viability, T/C is 27.1%.

And the viability, T/C [27]?
The viability, T/C was 32%.

And the viability, T/C [28]?
The viability, T/C was 33.4%.

And the viability, T/C [29]?
Its viability, T/C is 30.6%.

What about the viability, T/C [30] of the same compound?
Its viability, T/C is 26.7%.

And the viability, T/C [31]?
The viability, T/C was 15.4%.

And the viability, T/C [32]?
The viability, T/C was 14.6%.

And the viability, T/C [33]?
Its viability, T/C is 16.2%.

And the viability, T/C [34]?
Its viability, T/C is 15.1%.

What about the viability, T/C [35] of the same compound?
Its viability, T/C is 14.4%.

What about the viability, T/C [36] of the same compound?
Its viability, T/C is 9.85%.

Which results are given for CC1(C)CCC(Nc2ncc(C(F)(F)F)c(-c3c[nH]c4c(P(C)(C)=O)c(C#N)ccc34)n2)CN1 (stereo unspecified) + Cc1nc(NC(=O)N2CCCC2C(N)=O)sc1-c1ccnc(C(C)(C)C(F)(F)F)c1?
IC50 (second compound 0.0316 µM): < 31.6 nM; IC50 (second compound 0.1 µM): < 31.6 nM; IC50 (second compound 0.316 µM): < 31.6 nM; IC50 (second compound 1 µM): < 31.6 nM; IC50 (second compound 3.16 µM): < 31.6 nM; IC50 (second compound 10 µM): < 31.6 nM; viability, T/C [1]: 36.8%; viability, T/C [2]: 27%; viability, T/C [3]: 30.7%; viability, T/C [4]: 29.5%; viability, T/C [5]: 28.8%; viability, T/C [6]: 5.15%; viability, T/C [7]: 27.4%; viability, T/C [8]: 28.1%; viability, T/C [9]: 27.4%; viability, T/C [10]: 29.9%; viability, T/C [11]: 29.9%; viability, T/C [12]: 5.28%; viability, T/C [13]: 23.7%; viability, T/C [14]: 21.8%; viability, T/C [15]: 21.5%; viability, T/C [16]: 24.9%; viability, T/C [17]: 21.8%; viability, T/C [18]: 2.81%; viability, T/C [19]: 16.4%; viability, T/C [20]: 13.5%; viability, T/C [21]: 16%; viability, T/C [22]: 17.5%; viability, T/C [23]: 18.1%; viability, T/C [24]: 1.51%; viability, T/C [25]: 14.2%; viability, T/C [26]: 11.1%; viability, T/C [27]: 11.9%; viability, T/C [28]: 12.9%; viability, T/C [29]: 11.5%; viability, T/C [30]: 1.02%; viability, T/C [31]: 7.35%; viability, T/C [32]: 6.65%; viability, T/C [33]: 6.01%; viability, T/C [34]: 7.48%; viability, T/C [35]: 6.58%; viability, T/C [36]: 0.41%
